Test results published in ChEMBL document CHEMBL1201862, “PubChem BioAssay data set” (2004).
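Interpolation was linear, between the two tested concentrations surrounding the appropriate level; five concentrations were tested over 48 hours in 96-well plates. GI50 is the concentration that inhibits growth by half.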 Activity calls are given as the source filed them. Cut-off read from the data, not from the text of the source: active = GI50 up to about 1.1 µM and inactive = higher.

Columns and labels:
Experiment in all cases: growth of human tumour cells (NCI), 48 h
786-0 = test system: 786-0
A498 = test system: A498
A549 = test system: A549
ACHN = test system: ACHN
CAKI-1 = test system: CAKI-1
CCRF-CEM = test system: CCRF-CEM
COLO 205 = test system: COLO 205
DLD-1 = test system: DLD-1
DMS-114 = test system: DMS-114
DMS-273 = test system: DMS-273
EKVX = test system: EKVX
HCC 2998 = test system: HCC 2998
HCT-116 = test system: HCT-116
HCT-15 = test system: HCT-15
HL-60 = test system: HL-60
HOP-62 = test system: HOP-62
HT-29 = test system: HT-29
IGROV-1 = test system: IGROV-1
K562 = test system: K562
KM-20L2 = test system: KM-20L2
KM12 = test system: KM12
LOX IMVI = test system: LOX IMVI
LXFL 529 = test system: LXFL 529
M14 = test system: M14
M19-MEL = test system: M19-MEL
MOLT-4 = test system: MOLT-4
Malme-3M = test system: Malme-3M
NCI-H226 = test system: NCI-H226
NCI-H460 = test system: NCI-H460
NCI-H522 = test system: NCI-H522
OVCAR-3 = test system: OVCAR-3
OVCAR-5 = test system: OVCAR-5
OVCAR-8 = test system: OVCAR-8
RPMI-8226 = test system: RPMI-8226
RXF 393 = test system: RXF 393
SF-268 = test system: SF-268
SF-295 = test system: SF-295
SF-539 = test system: SF-539
SK-MEL-2 = test system: SK-MEL-2
SK-MEL-5 = test system: SK-MEL-5
SK-OV-3 = test system: SK-OV-3
SN12C = test system: SN12C
SNB-19 = test system: SNB-19
SNB-75 = test system: SNB-75
SNB-78 = test system: SNB-78
SW-620 = test system: SW-620
TK-10 = test system: TK-10
U-251 = test system: U-251
UACC-257 = test system: UACC-257
UACC-62 = test system: UACC-62
UO-31 = test system: UO-31
XF498 = test system: XF498

Measured: GI50

Oc1cccnc1/C=N/OCc1ccccc1
> 100 µM: HCT-15
inactive: 786-0 > 100 µM | A498 > 100 µM | A549 > 100 µM | ACHN > 100 µM | CAKI-1 > 100 µM | CCRF-CEM > 100 µM | COLO 205 > 100 µM | DLD-1 > 100 µM | DMS-114 > 100 µM | DMS-273 > 100 µM | EKVX > 100 µM | HCC 2998 > 100 µM | HCT-116 > 100 µM | HL-60 > 100 µM | HOP-62 > 100 µM | HT-29 > 100 µM | IGROV-1 > 100 µM | K562 > 100 µM | KM-20L2 > 100 µM | KM12 > 100 µM | LOX IMVI > 100 µM | LXFL 529 > 100 µM | M14 > 100 µM | M19-MEL > 100 µM | MOLT-4 > 100 µM | Malme-3M > 100 µM | NCI-H226 > 100 µM | NCI-H460 > 100 µM | NCI-H522 > 100 µM | OVCAR-3 > 100 µM | OVCAR-5 > 100 µM | OVCAR-8 > 100 µM | RPMI-8226 > 100 µM | RXF 393 23.6 µM | SF-268 > 100 µM | SF-295 > 100 µM | SF-539 > 100 µM | SK-MEL-2 > 100 µM | SK-MEL-5 > 100 µM | SK-OV-3 > 100 µM | SN12C 97.1 µM | SNB-19 > 100 µM | SNB-75 > 100 µM | SNB-78 > 100 µM | SW-620 > 100 µM | TK-10 > 100 µM | U-251 > 100 µM | UACC-257 > 100 µM | UACC-62 > 100 µM | UO-31 68.2 µM | XF498 29 µM
